Data taken from PubChem BioAssay AID2151 (NMMLSC, 2009).
Activity calls are given as the source filed them. The rule behind the calls is not given here.

Each compound was assayed against MEK5 PB1 domain binding to MEKK2 (MAP3K2) mutant PB1, human (assay: mutant MEKK2-MEK5 PB1 binding inhibitors, SAR follow-up, biochemical, bead multiplex flow cytometry (AID 2151)). Conditions: Bead-based multiplex flow cytometry.
With CCOc1cccc(-c2nn3c(-c4ccco4)nnc3s2)c1 the EC50 was > 30 µM (inactive).
In the case of c1coc(-c2nnc3sc(C4CCCCCC4)nn23)c1, the EC50 is reported as > 30 µM (inactive).
With COc1cc([N+](=O)[O-])ccc1-c1nn2c(-c3ccccn3)nnc2s1 the EC50 was > 30 µM (inactive).
COc1cccc(-c2nn3c(-c4ccccn4)nnc3s2)c1 was tested, and the EC50 was > 30 µM (inactive).
For c1coc(-c2nnc3sc(C4CCCCC4)nn23)c1, the EC50 was > 30 µM (inactive).
With COc1cc([N+](=O)[O-])ccc1-c1nn2c(-c3ccco3)nnc2s1 the EC50 was > 30 µM (inactive).
In the case of CCOc1cccc(-c2nn3c(-c4cccs4)nnc3s2)c1, the EC50 is reported as > 30 µM (inactive).
In the case of c1ccc(-c2nnc3sc(C4CCCCCC4)nn23)nc1, the EC50 is reported as > 30 µM (inactive).
In the case of c1ccc(-c2nnc3sc(-c4ccc[nH]4)nn23)nc1, the EC50 is reported as > 30 µM (inactive).
For c1csc(Cc2nn3c(-c4ccncc4)nnc3s2)c1, the EC50 was > 30 µM (inactive).
c1ccc(-c2nnc3sc(C4CCCCC4)nn23)nc1 was tested, and the EC50 was > 30 µM (inactive).
In the case of COc1ccc(-c2nn3c(-c4ccccn4)nnc3s2)cc1OC, the EC50 is reported as > 30 µM (inactive).
For c1c[nH]c(-c2nn3c(-c4ccco4)nnc3s2)c1, the EC50 was > 30 µM (inactive).
